Measurements as given in article PMC8997165, “Transcriptional CDK Inhibitors as Potential Treatment Option for Testicular Germ Cell Tumors” (Cancers, 2022).
Each block holds one molecule with its values, some of them ahead of it.

Columns and labels:
Format in all cases: cell-based, human
[1] = tested on: FS1 cells; assay: XTT cell viability assay, FS1 Sertoli control
Experimental: (§1) The following cell lines were used 2102EP, 2102EP-R, NCCIT, NCCIT-R (all ECs), TCam2 (seminoma cell line), FS1 (Sertoli cell line) and MPAF (human adult fibroblast cell line). Cells were cultivated as described previously. In brief, the ECs were cultivated in Dulbecco’s modified Eagle’s medium (DMEM) supplemented with 10% fetal bovine serum (FBS), 1% penicillin–streptomycin and […] L-glutamine. FS1 cells were grown in DMEM supplemented with 20% FSB, 1% penicillin–streptomycin, 200 mM L-glutamine and 1% nonessential amino acids (NEAA). MPAF cells were cultured in DMEM supplemented with 10% FBS, 1% penicillin–streptomycin, 200 mM L-glutamine and 1% NEAA. TCam2 cell line was cultured in RPMI medium supplemented with 10% FBS, 1% penicillin–streptomycin and […] L-glutamine. All cell lines were kept at 37 °C and 7.5% CO2. 2102EP and NCCIT were a kind gift from Prof. Dr. L. Looijenga (Princess Máxima Center for Pediatric Oncology, Utrecht, The Netherlands). Cisplatin-resistant lines 2102EP-R and NCCIT-R were obtained from PD Dr. F. Honecker (Breast and Tumor Center, ZeTup Silberturm, St. Gallen, Switzerland). MPAFs were a kind gift from […] (Bonn University, Institute of Reconstructive Neurobiology, Bonn, Germany). FS1 cells were obtained from Prof. Dr. V. Schumacher (Boston Children’s Hospital, Department of Urology; Harvard Medical School, Department of Surgery, Boston, MA, USA).
(§2) The assay was performed based on the reduction in XTT tetrazolium salt as described previously. In summary, 3000 cells were seeded per well of a 96-well cell culture plate in 100 µL of cell culture medium. The next day, cells were treated with CDK inhibitor or CDK degrader for 24/48/72 h. For XTT assay, 0.6 mg/mL XTT sodium salt was dissolved in cell culture medium (DMEM or RPMI) and supplemented with 25 µM electron carrier N-methyl dibenzopyrazine methyl sulfate (PMS). A total of 50 µL of XTT/PMS was added to each well and incubated for 4 h at 37 °C, 7.5% CO2. For readout, absorption was measured at 450 nm and 650 nm. Specific XTT signal (450 nm) was subtracted by nonspecific absorbance (650) and blank (cell culture medium). Averages of technical triplicates were calculated, and treated sample was referenced to the corresponding dimethyl sufoxide (DMSO) control. Experiment was repeated several times to obtain biological replicates. For statistical analysis, two-tailed Student’s t-test was applied.

[2] = tested on: 2102EP-R cells; assay: XTT cell viability assay, 2102EP-R (cisplatin-resistant)
Experimental: as §1, §2

[3] = tested on: NCCIT-R cells; assay: XTT cell viability assay, NCCIT-R (cisplatin-resistant)
Experimental: as §1, §2

[4] = tested on: TGCT cell lines; assay: XTT cell viability assay, summarised over TGCT tumor cell lines
Experimental: as §1, §2

[5] = tested on: MPAF cells; assay: XTT cell viability assay, MPAF fibroblast control; details: for IC50: XTT viability
Experimental: as §1, §2

[6] = tested on: 2102EP cells; assay: XTT cell viability assay, 2102EP
Experimental: as §1, §2

[7] = tested on: NCCIT cells; assay: XTT cell viability assay, NCCIT
Experimental: as §1, §2

[8] = tested on: TCam2 cells; assay: XTT cell viability assay, TCam2
Experimental: as §1, §2

[9] = tested on: TGCT and control cell lines; assay: Hoechst-FACS cell cycle analysis; details: 20 h; NVP2 and SY0351 10 nM, YKL-5-124 and THZ531 100 nM
Experimental: (§3) Cells were seeded in 6-well cell culture plates (1.5 × 10^5 cells/well). […] For cell cycle analysis, cells were harvested after 20 h of treatment and resuspended in PBS. Ice-cold methanol was added dropwise while shaking until 70% methanol v/v was reached. Cells were incubated for 2 h at 4 °C and subsequently washed twice with cold PBS. Staining (2 µg/mL Hoechst-33342, 50 µg/mL RNaseA in PBS) was performed for 30 min at 37 °C. The cell cycle distribution was measured in an FACS Canto (BD BioSciences, Heidelberg, Germany) and analyzed using FlowJo™ v10.8 Software (BD BioSciences, Heidelberg, Germany). For apoptosis analysis, PE AnnexinV Apoptosis Detection Kit with 7-AAD (BioLegend, San Diego, CA USA) was used according to the manufacturer’s manual. Measurement was performed in an FACS Canto while analysis was performed in the corresponding BD FACSDiva software^TM (BD BioSciences, Heidelberg, Germany). Two-tailed Student’s t-test was applied for calculation of significance.

[10] = tested on: TGCT and control cell lines; assay: 7AAD/AnnexinV FACS apoptosis analysis, TGCT and control cell lines; details: tumor cell lines, 100 nM, 24 and 48 h
Experimental: as §3

IC50 ([4]; Homo sapiens, 72 h, tumor (TGCT) cell lines, XTT viability, read-out: IC50 at 72 h, range over tumor cell lines): 7.5 to 273 nM
Structure (SMILES): CN1CC[C@H](c2c(O)cc(O)c3c(=O)cc(-c4ccccc4Cl)oc23)[C@H](O)C1 [Flavo-Piridol, flavopiridol]
IC50 ([1]; Homo sapiens, FS1, 24 h): > 1000 nM
IC50 ([1]; Homo sapiens, FS1, 48 h): 696 nM
IC50 ([1]; Homo sapiens, FS1, 72 h): 91.5 nM
IC50 ([2]; Homo sapiens, 24 h): > 1000 nM
IC50 ([2]; Homo sapiens, 48 h): 21.9 nM
IC50 ([2]; Homo sapiens, 72 h): 7.56 nM
IC50 ([3]; Homo sapiens, 24 h): 639 nM
IC50 ([3]; Homo sapiens, 48 h): 107 nM
IC50 ([3]; Homo sapiens, 72 h): 43.3 nM
viability (XTT) ([4]; EC cell lines (2102EP, 2102EP-R, NCCIT, NCCIT-R), 50 nM): strong decrease in viability
sensitivity (XTT viability) [5]: almost resistant
IC50 ([5]; Homo sapiens, Fibroblast, 24 h): > 1000 nM
IC50 ([5]; Homo sapiens, Fibroblast, 48 h): > 1000 nM
IC50 ([5]; Homo sapiens, Fibroblast, 72 h): > 1000 nM
IC50 ([6]; Homo sapiens, 24 h): > 1000 nM
IC50 ([6]; Homo sapiens, 48 h): 39.9 nM
IC50 ([6]; Homo sapiens, 72 h): 18 nM
IC50 ([7]; Homo sapiens, 24 h): 710 nM
IC50 ([7]; Homo sapiens, 48 h): 21.9 nM
IC50 ([7]; Homo sapiens, 72 h): 34.1 nM
IC50 ([8]; Homo sapiens, TCam2, 24 h): > 1000 nM
IC50 ([8]; Homo sapiens, TCam2, 48 h): 582 nM
IC50 ([8]; Homo sapiens, TCam2, 72 h): 273 nM

Structure (SMILES): CN(C)C/C=C/C(=O)Nc1ccc(C(=O)N2CCC[C@@H](Nc3ncc(Cl)c(-c4c[nH]c5ccccc45)n3)C2)cc1 [THZ531]
IC50 ([1]; Homo sapiens, FS1, 24 h): > 1000 nM
IC50 ([1]; Homo sapiens, FS1, 48 h): > 1000 nM
IC50 ([1]; Homo sapiens, FS1, 72 h): > 1000 nM
IC50 ([2]; Homo sapiens, 24 h): > 1000 nM
IC50 ([2]; Homo sapiens, 48 h): 228 nM
IC50 ([2]; Homo sapiens, 72 h): 164 nM
IC50 ([3]; Homo sapiens, 24 h): > 1000 nM
IC50 ([3]; Homo sapiens, 48 h): > 1000 nM
IC50 ([3]; Homo sapiens, 72 h): 137 nM
IC50 ([5]; Homo sapiens, Fibroblast, 24 h): > 1000 nM
IC50 ([5]; Homo sapiens, Fibroblast, 48 h): > 1000 nM
IC50 ([5]; Homo sapiens, Fibroblast, 72 h): > 1000 nM
IC50 ([6]; Homo sapiens, 24 h): > 1000 nM
IC50 ([6]; Homo sapiens, 48 h): 180 nM
IC50 ([6]; Homo sapiens, 72 h): 74.5 nM
effect on cell cycle [9]: only mild effects on the cell cycle
apoptosis induction [10]: moderate increase in apoptosis induction
IC50 ([7]; Homo sapiens, 24 h): > 1000 nM
IC50 ([7]; Homo sapiens, 48 h): > 1000 nM
IC50 ([7]; Homo sapiens, 72 h): 96.6 nM
IC50 ([8]; Homo sapiens, TCam2, 24 h): > 1000 nM
IC50 ([8]; Homo sapiens, TCam2, 48 h): > 1000 nM
IC50 ([8]; Homo sapiens, TCam2, 72 h): > 1000 nM

Structure (SMILES): CN(C)C/C=C/C(=O)Nc1ccc(C(=O)Nc2cccc(Nc3ncc(Cl)c(-c4c[nH]c5ccccc45)n3)c2)cc1 [THZ1]
IC50 ([1]; FS1, 24 h): > 1000 nM
IC50 ([1]; FS1, 48 h): > 1000 nM
IC50 ([1]; FS1, 72 h): > 1000 nM
IC50 ([2]; 24 h): 235 nM
IC50 ([2]; 48 h): 16.3 nM
IC50 ([2]; 72 h): 9.9 nM
IC50 ([3]; 24 h): 929 nM
IC50 ([3]; 48 h): 145 nM
IC50 ([3]; 72 h): 16.2 nM
IC50 ([5]; 24 h): > 1000 nM
IC50 ([5]; 48 h): > 1000 nM
IC50 ([5]; 72 h): > 1000 nM
IC50 ([6]; 24 h): 95.6 nM
IC50 ([6]; 48 h): 26.3 nM
IC50 ([6]; 72 h): 6.7 nM
IC50 ([7]; 24 h): > 1000 nM
IC50 ([7]; 48 h): 92.9 nM
IC50 ([7]; 72 h): 9.3 nM
IC50 ([8]; TCam2, 24 h): > 1000 nM
IC50 ([8]; TCam2, 48 h): > 1000 nM
IC50 ([8]; TCam2, 72 h): 847 nM
